What is called IC50 is the concentration that inhibits the measured activity by half.

In one assay the target is T1, Human plasma kallikrein (Homo sapiens, UniProt P03952).
T1 construct: yields a heavy chain (371 amino acids) and a light chain (248 amino acids); The active site of plasma kallikrein is contained in the light chain; purchased Enzyme Research Laboratories
Briefly: Plasma Kallikrein Assay. The conditions noted are these: purified Human plasma kallikrein 0.5 nM, substrate Acetyl-K-P-R-AFC, HEPES pH 7.4; read-out: PKal IC50. Type of assay: biochemical. On the procedure:
(§1) The effectiveness of a compound of the present invention as an inhibitor of plasma kallikrein can be determined using a relevant purified serine protease, and an appropriate synthetic substrate. The rate of hydrolysis of the chromogenic or fluorogenic substrate by the relevant serine protease was measured both in the absence and presence of compounds of the present invention. Assays were conducted at rt or at 37° C. […] A decrease in the rate of fluorescence change in the presence of inhibitor is indicative of enzyme inhibition. Such methods are known to one skilled in the art. The results of this assay are expressed as the half-maximal inhibitory concentrations (IC50), or the inhibitory constant, Ki.
Plasma kallikrein determinations were made in 50 mM HEPES buffer at pH 7.4 containing 150 mM NaCl, 5 mM CaCl2), and 0.1% PEG 8000 (polyethylene glycol; Fisher Scientific). Determinations were made using purified Human plasma kallikrein at a final concentration of 0.5 nM (Enzyme Research Laboratories) and the synthetic substrate, Acetyl-K—P—R-AFC (Sigma #C6608) at a concentration of […].
Times required to achieve equilibration between enzyme and inhibitor were determined in control experiments. […] IC50 was determined by inflection point from a four parameter logistic curve fit. Ki was calculated using the Cheng Prusoff equation, Ki=IC50/[…](1+([S]/Km)).

The target of the next assay is human factor XIa (Homo sapiens, UniProt P03951). Nature of the assay: Factor XIa Assay. It is filed as biochemical. The settings on record: human factor XIa 0.04 nM, substrate GPR-AFC, 30 min pre-incubation, 25° C., pH 7.4; read-out: FXIa IC50. On the procedure:
as §1, with “Coagulation factor XIa” for “plasma kallikrein”
Compounds were pre-incubated for 30 min at 25° C. with human (0.04 nM) factor XIa in 50 mM HEPES buffer with 150 mM sodium chloride, 5 mM calcium chloride, 0.1% PEG 8000, pH 7.4. factor XIa enzymatic activity was determined by addition of the substrate glycine-proline-arginine-7-amido-4-trifluoromethylcoumarin (GPR-AFC) and measurement of the fluorescence at 400/505 nm after a 60 min incubation at 25° C. The % inhibition for each data point was calculated from the data and analyzed using the log (inhibitor) vs. response four parameters equation to determine the half-maximal inhibitory concentrations (IC50). The IC50 were converted to equilibrium inhibitory constants (Ki) using the Cheng-Prusoff equation.

human factor XIa, sequence (P03951 388-625 limits assumed): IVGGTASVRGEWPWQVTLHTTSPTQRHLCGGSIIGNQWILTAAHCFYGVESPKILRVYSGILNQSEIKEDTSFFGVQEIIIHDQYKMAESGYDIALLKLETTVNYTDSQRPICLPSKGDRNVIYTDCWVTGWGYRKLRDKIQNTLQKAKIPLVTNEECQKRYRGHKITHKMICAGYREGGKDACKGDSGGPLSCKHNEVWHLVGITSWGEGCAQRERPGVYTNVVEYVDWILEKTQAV
human factor XIa, sequence (P03951 19-387 partner limits assumed): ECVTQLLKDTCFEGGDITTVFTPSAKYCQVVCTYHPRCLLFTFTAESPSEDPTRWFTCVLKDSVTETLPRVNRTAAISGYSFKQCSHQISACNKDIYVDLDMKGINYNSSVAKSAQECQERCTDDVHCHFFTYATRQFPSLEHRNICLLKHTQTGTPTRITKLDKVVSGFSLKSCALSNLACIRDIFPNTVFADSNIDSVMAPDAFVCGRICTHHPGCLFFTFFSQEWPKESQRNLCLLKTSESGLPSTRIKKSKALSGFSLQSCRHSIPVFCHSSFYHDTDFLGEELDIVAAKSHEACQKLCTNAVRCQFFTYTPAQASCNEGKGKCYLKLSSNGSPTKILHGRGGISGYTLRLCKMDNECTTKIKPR
T1 sequence (P03952 391-638 limits assumed): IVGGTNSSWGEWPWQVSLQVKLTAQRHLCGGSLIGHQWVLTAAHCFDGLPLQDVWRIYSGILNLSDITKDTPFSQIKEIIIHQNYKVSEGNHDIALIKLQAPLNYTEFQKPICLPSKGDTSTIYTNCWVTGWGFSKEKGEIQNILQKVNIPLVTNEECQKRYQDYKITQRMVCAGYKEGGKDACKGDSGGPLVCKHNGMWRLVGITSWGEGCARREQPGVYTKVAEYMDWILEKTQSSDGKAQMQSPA
T1 sequence (P03952 20-390 partner limits assumed): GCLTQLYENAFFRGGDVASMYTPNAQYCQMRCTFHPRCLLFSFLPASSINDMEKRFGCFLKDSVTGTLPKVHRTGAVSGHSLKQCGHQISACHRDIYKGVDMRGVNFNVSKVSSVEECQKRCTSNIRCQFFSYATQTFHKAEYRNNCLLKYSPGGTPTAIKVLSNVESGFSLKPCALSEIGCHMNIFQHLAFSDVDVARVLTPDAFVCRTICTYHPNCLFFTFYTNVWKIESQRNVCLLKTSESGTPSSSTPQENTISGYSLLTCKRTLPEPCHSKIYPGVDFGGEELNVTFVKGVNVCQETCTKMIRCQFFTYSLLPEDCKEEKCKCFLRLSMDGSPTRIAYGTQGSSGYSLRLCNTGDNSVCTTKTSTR

Turning to `Nc1c(C(=O)N2CCC[C@@]3(C2)OC(=O)Nc2ccc(Cl)c(F)c23)cnn1CCN1CCOCC1` [Example 14, (R)-1'-(5-Amino-1-(2-morpholinoethyl)-1H-pyrazole-4-carbonyl)-6-chloro-5-fluorospiro[benzo[d][1,3]oxazine-4,3'-piperidin]-2(1H)-one], the IC50 at Human plasma kallikrein turned out to be 42.8 nM; at human factor XIa, 3180 nM.
The matching figures for `Nc1c(C(=O)N2CCC[C@@]3(C2)OC(=O)Nc2ccc(Cl)c(F)c23)cnn1CC(F)F` [Example 15, (R)-1'-(5-Amino-1-(2,2-difluoroethyl)-1H-pyrazole-4-carbonyl)-6-chloro-5-fluorospiro[benzo[d][1,3]oxazine-4,3'-piperidin]-2(1H)-one]: 16.9 nM and 882 nM.
The corresponding values for `Nc1c(C(=O)N2CCC[C@@]3(C2)OC(=O)Nc2ccc(Cl)c(F)c23)cnn1CCc1ccccc1` [Example 16, (R)-1'-(5-Amino-1-phenethyl-1H-pyrazole-4-carbonyl)-6-chloro-5-fluorospiro[benzo[d][1,3]oxazine-4,3'-piperidin]-2(1H)-one] are 4.1 nM and 441 nM.
The corresponding values for `CC(C)Cn1ncc(C(=O)N2CCC[C@@]3(C2)OC(=O)Nc2ccc(Cl)c(F)c23)c1N` [Example 17, (R)-1'-(5-Amino-1-isobutyl-1H-pyrazole-4-carbonyl)-6-chloro-5-fluorospiro[benzo[d][1,3]oxazine-4,3'-piperidin]-2(1H)-one] are 8 nM and 328 nM.
As to `Nc1c(C(=O)N2CCC[C@@]3(C2)OC(=O)Nc2ccc(Cl)c(F)c23)cnn1C1CCOCC1` [Example 18, (R)-1'-(5-Amino-1-(tetrahydro-2H-pyran-4-y1)-1H-pyrazole-4-carbonyl)-6-chloro-5-fluorospiro[benzo[d][1,3]oxazine-4,3'-piperidin]-2(1H)-one], the figures for the IC50 on Human plasma kallikrein and at human factor XIa were 39.1 nM and 1650 nM, respectively.
Take `Nc1c(C(=O)N2CCC[C@@]3(C2)OC(=O)Nc2ccc(Cl)c(F)c23)cnn1C12CC(C1)C2` [Example 19, (R)-1'-(5-Amino-1-(bicyclo[1.1.1]pentan-1-y1)-1H-pyrazole-4-carbonyl)-6-chloro-5-fluorospiro[benzo[d][1,3]oxazine-4,3'-piperidin]-2(1H)-one]: the half-maximal inhibitory concentration (IC50) came out at 28.9 nM on Human plasma kallikrein and 2940 nM on human factor XIa.
The corresponding values for `Nc1c(C(=O)N2CCC[C@@]3(C2)OC(=O)Nc2ccc(Cl)c(F)c23)cnn1CCOCC(F)(F)F` [Example 20, (R)-1'-(5-Amino-1-(2-(2,2,2-trifluoroethoxy)ethyl)-1H-pyrazole-4-carbonyl)-6-chloro-5-fluorospiro[benzo[d][1,3]oxazine-4,3'-piperidin]-2(1H)-one] are 5.9 nM and 882 nM.
The matching figures for `CC(C)OCCn1ncc(C(=O)N2CCC[C@@]3(C2)OC(=O)Nc2ccc(Cl)c(F)c23)c1N` [Example 21, (R)-1'-(5-Amino-1-(2-isopropoxyethyl)-1H-pyrazole-4-carbonyl)-6-chloro-5-fluorospiro[benzo[d][1,3]oxazine-4,3'-piperidin]-2(1H)-one]: 12.6 nM and 1100 nM.
The corresponding values for `Nc1c(C(=O)N2CCC[C@@]3(C2)OC(=O)Nc2ccc(Cl)c(F)c23)cnn1C1CCCC1` [Example 22, (R)-1'-(5-Amino-1-cyclopenty1-1H-pyrazole-4-carbonyl)-6-chloro-5-fluorospiro[benzo[d][1,3]oxazine-4,3'-piperidin]-2(1H)-one] are 15.3 nM and 1120 nM.
`CC(C)(C)n1ncc(C(=O)N2CCC[C@@]3(C2)OC(=O)Nc2ccc(Cl)c(F)c23)c1N` [Example 23, (R)-1'-(5-Amino-1-(tert-butyl)-1H-pyrazole-4-carbonyl)-6-chloro-5-fluorospiro[benzo[d][1,3]oxazine-4,3'-piperidin]-2(1H)-one]: the IC50 at Human plasma kallikrein was determined as 13.5 nM; at human factor XIa, 2250 nM.
The corresponding values for `COCCn1ncc(C(=O)N2CCC[C@@]3(C2)OC(=O)Nc2ccc(Cl)c(F)c23)c1N` [Example 24, (R)-1'-(5-Amino-1-(2-methoxyethyl)-1H-pyrazole-4-carbonyl)-6-chloro-5-fluorospiro[benzo[d][1,3]oxazine-4,3'-piperidin]-2(1H)-one] are 10.9 nM and 425 nM.
The matching figures for `CCn1ncc(C(=O)N2CCC[C@@]3(C2)OC(=O)Nc2ccc(Cl)c(F)c23)c1N` [Example 25, (R)-1'-(5-Amino-1-ethy1-1H-pyrazole-4-carbonyl)-6-chloro-5-fluorospiro[benzo[d][1,3]oxazine-4,3'-piperidin]-2(1H)-one]: 24.8 nM and 2000 nM.
The matching figures for `Nc1c(C(=O)N2CCC[C@@]3(C2)OC(=O)Nc2ccc(Cl)c(F)c23)cnn1CC1(C(F)(F)F)CC1` [Example 26, (R)-1'-(5-Amino-1-((1-(trifluoromethyl)cyclopropyl)methyl)-1H-pyrazole-4-carbonyl)-6-chloro-5-fluorospiro[benzo[d][1,3]oxazine-4,3'-piperidin]-2(1H)-one]: 8.3 nM and 352 nM.
`Nc1c(C(=O)N2CCC[C@@]3(C2)OC(=O)Nc2ccc(Cl)c(F)c23)cnn1CCC(F)(F)F` [Example 27, (R)-1'-(5-Amino-1-(3,3,3-trifluoropropyl)-1H-pyrazole-4-carbonyl)-6-chloro-5-fluorospiro[benzo[d][1,3]oxazine-4,3'-piperidin]-2(1H)-one]: the 50% inhibitory concentration (IC50) was 18.8 nM on Human plasma kallikrein and 699 nM at human factor XIa.
The corresponding values for `Nc1c(C(=O)N2CCC[C@@]3(C2)OC(=O)Nc2ccc(Cl)c(F)c23)cnn1C1(c2ccc(F)cc2)CC1` [Example 28, (R)-1'-(5-Amino-1-(1-(4-fluorophenyl)cyclopropyl)-1H-pyrazole-4-carbonyl)-6-chloro-5-fluorospiro[benzo[d][1,3]oxazine-4,3'-piperidin]-2(1H)-one] are 2.9 nM and 112 nM.
The corresponding values for `Nc1c(C(=O)N2CCC[C@@]3(C2)OC(=O)Nc2ccc(Cl)c(F)c23)cnn1CC1(F)CC1` [Example 29, (R)-1'-(5-Amino-1-((1-fluorocyclopropyl)methyl)-1H-pyrazole-4-carbonyl)-6-chloro-5-fluorospiro[benzo[d][1,3]oxazine-4,3'-piperidin]-2(1H)-one] are 7.9 nM and 705 nM.
For `Cn1c(-c2ccccc2)nnc1-n1ncc(C(=O)N2CCC[C@@]3(C2)OC(=O)Nc2ccc(Cl)c(F)c23)c1N` [Example 30, (R)-1'-(5-Amino-1-(4-methyl-5-phenyl-4H-1,2,4-triazol-3-y1)-1H-pyrazole-4-carbonyl)-6-chloro-5-fluorospiro[benzo[d][1,3]oxazine-4,3'-piperidin]-2(1H)-one], the half-inhibitory concentration (IC50) at Human plasma kallikrein is 18.4 nM; on human factor XIa, 2830 nM.
The corresponding values for `Nc1c(C(=O)N2CCC[C@@]3(C2)OC(=O)Nc2ccc(Cl)c(F)c23)cnn1Cc1ccncc1` [Example 32, (R)-1'-(5-Amino-1-(pyridin-4-ylmethyl)-1H-pyrazole-4-carbonyl)-6-chloro-5-fluorospiro[benzo[d][1,3]oxazine-4,3'-piperidin]-2(1H)-one] are 1.7 nM and 268 nM.

For the origin of these results see patent publication US12679848B2, “Plasma kallikrein inhibitors” (Merck Sharp & Dohme LLC, priority 2020, dated 2026).
